Measured values as given in US20230330053A1, “METHOD FOR TREATING INFECTIONS” (priority 2020, published 2023).
Entries after “also recorded” stand apart in the source; their conditions may differ.

What was measured:
[1] = system: SARS-CoV-2 (USA-WA1/2020 strain); assay: Direct injection into SARS-CoV-2 viral suspension, plaque assay on Vero E6 cells; assay type: cell-based; conditions: for Effect on viral burden at the lower volumes: formula 2 and 5 μls, or corresponding propionic acid 1.4 and 3.9 μls, isoamyl hexanoates 0.6 and 1.1 μls
[2] = system: SARS-CoV-2; assay: Sx direct injection into SARS-CoV-2 suspension in MEM, Vero E6 plaque assay; assay type: cell-based
[3] = biological target: receptor binding domain (RBD) of the SARS-CoV-2 spike protein to ACE2 (Severe acute respiratory syndrome coronavirus 2, UniProt P0DTC2); conditions: cited from earlier work

Compound	Suppression of SARS-CoV-2 by the component alone ([1]; 37° C., all treatment arms)	Effect on viral burden at the lower volumes [1]	Reduction in activity of the virus ([2]; 1.1 μL alone, at about 100 min)	Virus activity after 300 min relative to control ([2]; esters alone)	General reduction in virus activity within about 30 min ([2]; esters alone, over the range of concentrations tested)	Reduction in activity over the course of 300 minutes ([2]; highest concentration of 4.6 μL alone)	Decline in viral burden after 360 mins post-addition ([1]; 37° C., 1.4 μls alone)	Decline in viral burden after 360 mins post-addition ([1]; 37° C., 3.9 μls alone)	Volume necessary for a relative immediate inactivation of the virus ([2]; acid alone)	Volume necessary to get any appreciable activity ([2]; acid alone)	Reduction of activity on adding peptide to the virus [3]
isoamyl hexanoates	substantially less effective	minimal reduction of viral burden	~1 log	about equaled that of the control; also recorded: approximately equaled that of the control	~1 log	1 order of magnitude					
CCC(=O)O [propionic acid]		minimal reduction of viral burden					0.29 log10 PFU/ml	0.98 log10 PFU/ml	at least 15.4 μL	up to 7.7 μL	
GluGluLeuGlu											34%
